Tests used:
U2OS cells [1] = experiment: autophagic flux by confocal microscopy and western blotting; assay type: cell-based, Human
Procedure: […]. After harvesting, cells were lysed with radioimmunoprecipitation assay (RIPA) buffer (50 mM Tris-HCl, pH 7.5, 150 mM NaCl, 0.5 % deoxycholate, 1 % Triton X-100, 0.1 % SDS and 1x protease inhibitors) and left on ice for 30 minutes. Cell lysates were clarified by centrifugation at 10000xg for 20 min at 4 °C. Protein concentrations of the supernatants were determined by BCA assay and the absorbance was measured at 562 nm. SDS-PAGE and WB was performed.
For screening purposes, cells were seeded in 384 well plates and left over night for attachment. […]. For controls, cells were treated with 250 nM torin and/or 100 nM BafA1 for 2 hours.
(§1) Afterwards, medium was removed and 4 % (w/v) paraformaldehyde (PFA) in PBS buffer was added to the cells for 20 minutes, incubated at room temperature. Cells were permeabilized with 0.1 % (v/v) Triton X-100 for 10 min at room temperature and washed with PBS. Cells were blocked with 3 % (w/v) bovine serum albumin (BSA) in PBS for 45 minutes at 37 °C and then incubated with anti-LC3B (PM036, MBL) or anti-p62 (PM045 or M162-3, MBL) primary antibody diluted in 0.3 % BSA (1:2000 or 1:500) for 1.5-2 hours at 37 °C. Cells were washed three times with PBS. Secondary Alexa Fluor 488 - labeled antibodies (A-11008, Invitrogen) were diluted in 0.3 % BSA (1:2500) and incubated on cells for 15 minutes at 37 °C. Cells were washed once with PBS, incubated with DRAQ5 (#4084, Cell Signaling) diluted in PBS (1:5000) for 10 minutes and washed three times with PBS.
384 well plates were then analyzed with an automated confocal microscope Opera (PerkinElmer) enabling high throughput high content screening image analysis. […] Signal was detected with a fast gated CCD camera. […]
The LC3B protein is a ubiquitin-like protein that can be conjugated to phosphatidylethanolamine (PE) in the membrane of the incipient autophagosome. […] Autophagic flux is often inferred on the basis of LC3B-II turnover, measured by western blot (WB) or immunofluorescence (IF) in the presence and absence of lysosomal degradation. […]

HCT116 = experiment: MTT cell viability assay; assay type: cell-based; conditions: 72 and 96 hours
Procedure: (§2) The MTT assay is a colorimetric assay for assessing cell viability. NAD(P)H-dependent cellular oxidoreductase enzymes in metabolic active cells reduce the tetrazolium dye MTT 3-(4,5-dimethylthiazol-2-yl)-2,5-diphenyltetrazolium bromide to its insoluble purple formazan. All cell types were seeded in 96 well plates and left over night for attachment. Next day, cells were treated with 100 µM compound I-1 for 24, 48, 72, and 96 hours. For controls, 1 µM staurosporine and 100 nM BafA1 were used. The assay was performed according to manufacturer's instructions and the absorbance of the formazan product was measured at 595 nm.

A549 = experiment: MTT cell viability assay; assay type: cell-based
Procedure: as §2

PANC1 = experiment: MTT cell viability assay; assay type: cell-based; conditions: 72 and 96 hours
Procedure: as §2

U2OS cells [2] = experiment: MTT cell viability assay; assay type: cell-based, Human
Procedure: as §2

PANC1, HCT116, A549 = experiment: LC3B and p62 spots in autophagy-dependent cancer cell lines; assay type: cell-based; conditions: 1 hr, 100 µM; all three cell lines
Procedure: For screening purposes, cells were seeded in 384 well plates and left over night for attachment. […] For controls, cells were treated with 250 nM torin and/or 100 nM BafA1 for 2 hours.
as §1
384 well plates were then analyzed with an automated confocal microscope Opera (PerkinElmer) enabling high throughput high content screening image analysis. Confocal images were taken at the Institute of Biochemistry II, Goethe University Medical School, Theodor-Stern-Kai 7, 60590 Frankfurt am Main, Germany. […] Signal was detected with a fast gated CCD camera. […]

Compound: Brc1ccc(CSC2=NCN(Cc3cccnc3)CN2)cc1 [Compound I-1, 6-((4-bromobenzyl)thio)-3-(pyridin-3-ylmethyl)-1,2,3,4-tetrahydro-1,3,5-triazine]
- numbers of LC3B spots and levels of LC3B-II (U2OS cells [1]; 100 µM compound together with BafA1 100 nM, compared with single treatment): did not increased further
- amount of LC3B-II protein and LC3B spots (U2OS cells [1]; 100 µM, 1 hr): increased
- cell survival (HCT116): almost no cell survival
- reduced cell viability (A549; 72 and 96 hours): approximately 50%
- cell viability (A549; 48 hours): unaffected
- reduced cell viability (PANC1): approximately 50%
- cell survival (U2OS cells [2]; 72 and 96 hours): almost no cell survival
- cell viability (U2OS cells [2]; 24 hours, 100 µM): decreased viability
- number of LC3B and p62 spots (PANC1, HCT116, A549): increased

From patent publication EP3184514A1, “AUTOPHAGY INHIBITORS” (Deutsches Krebsforschungszentrum, priority 2015, dated 2017)
